Experimental findings from patent US11564920B2, “5-heteroaryl-1H-pyrazol-3-amine derivative” (Sumitomo Pharma Co., Ltd., priority 2020, dated 2023) are described below.

In one series the target is CYP3A4 (Homo sapiens (Human), UniProt P08684). Nature of the series: CYP3A4 MBI and enzyme inactivation clearance evaluation. The format is in vitro ADME. The note with it: human liver microsome. As for the experimental part:
The effect and mode of inhibition of the test compound on CYP3A4 were evaluated using a human liver microsome as an enzyme source and midazolam or testosterone as a substrate. […] The IC50 value was calculated from a concentration plot.
Background: Liver microsomes are a subcellular fraction often used to study metabolism.

Another series deals with CHK1 (Homo sapiens (Human), UniProt O14757). In words: Kinase selectivity test (HotSpot Full Panel Kinase profiling). The series is classed as biochemical. To be noted: 100 nM, ATP 10 μM; read-out: Residual activity (%) CHK1. How it is done:
(§1) Buffer: 20 mM HEPES, pH 7.5, 10 mM MgCl2, 2 mM […] (as needed), 1 mM EGTA, 0.02% Brij35, 0.02 mg/mL BSA, 0.1 mM Na3VO4, 2 mM DTT, 1% DMSO
(§2) Compound concentration: 100 nM

Series [1] is described as follows: Liposome encapsulation test (Test Example 6). The format is physicochemical. As for the experimental part:
6.48 g of hydrogenated soybean phosphatidylcholine (COATSOME NC-21E, NOF Corporation), 2.32 g of cholesterol (Sigma) and 2.06 g of distearoylphosphatidylethanolamine-methoxypolyethylene glycol 2000 (SUNBRIGHT DSPE-020CN, NOF Corporation) were dissolved in 560 mL of t-butyl alcohol heated to 65° C. The solution was frozen with dry ice/acetone bath and t-butyl alcohol was then removed by evaporation under reduced pressure to obtain a lipid mixture.
200 mL of 250 mM ammonium sulfate solution was added to the lipid mixture. The resulting mixture was heated to 65° C. and dispersed with a homogenizer (ULTRA-TURRAX, IKA) to obtain a crude liposome dispersion. […] The prepared amount was increased or decreased appropriately.
2 to 3 mg of the test compound was weighed out. 1 mL of empty liposome solution with a total lipid concentration of 50 mM was added. An aqueous 1 mol/L hydrochloric acid or 1 mol/L sodium hydroxide solution was added to adjust the pH to 5.5 to 7. […] Insolubles, when present, were removed by centrifugation for 5 minutes at 15,000×g.
100 μL of liposome solution was passed through an ultrafiltration filter (Amicon Ultra, 100K, 0.5 mL, Merck), and centrifuged at 4° C. at 15,000×g for 10 minutes. The concentration of the compound in the filtrate after ultrafiltration was measured by HPLC as the unencapsulated compound concentration.
The liposome solution was diluted with a trifluoroacetic acid/water/methanol mixture (0.1/25/75) and was left standing for 10 minutes or longer at 5° C. The solution was centrifuged for 5 minutes at 15,000×g to remove insolubles. The compound concentration in the supernatant was measured by HPLC as the compound concentration in the liposome solution.
The encapsulation ratio and the encapsulation efficiency were calculated by the following equations. Encapsulation ratio (%)=(compound concentration in liposome solution−unencapsulated compound concentration)×100/compound concentration in liposome solution Encapsulation efficiency (%)=(compound concentration in liposome solution−unencapsulated compound concentration)×100/concentration upon compound introduction

The next series has as its target BRSK1 (Homo sapiens (Human), UniProt Q8TDC3). In words: Kinase selectivity test (HotSpot Full Panel Kinase profiling). The series is classed as biochemical. The note with it: 100 nM, ATP 10 μM; read-out: Residual activity (%) BRSK1. How it is done:
as §1, §2

The next series deals with LOK/STK10 (Homo sapiens (Human), UniProt O94804). The series is described as above. The format is biochemical. The note with it: 100 nM, ATP 10 μM; read-out: Residual activity (%) LOK/STK10. As for the experimental part:
as §1, §2

The next series concerns the target CDK8/CYCLIN C (Homo sapiens (Human), UniProt P49336). The description is as above. The series is classed as biochemical. The note with it: 100 nM, ATP 10 μM; read-out: Residual activity (%) CDK8/CYCLIN C. As for the experimental part: as §1, §2
The target of the next series is MARK2/PAR-1BA (Homo sapiens (Human), UniProt Q7KZI7). The description is as above. The series is classed as biochemical. The note with it: 100 nM, ATP 10 μM; read-out: Residual activity (%) MARK2/PAR-1BA (PAR-18A in Table 33). How it is done: as §1, §2
The next series has as its target CAMK2D (Homo sapiens (Human), UniProt Q13557). The description is as above. The series is classed as biochemical. The note with it: 100 nM, ATP 10 μM; read-out: Residual activity (%) CAMK2D. As for the experimental part:
as §1, §2

The target in a further series is CHK2 (Homo sapiens (Human), UniProt O96017). The description is as above. To be noted: 100 nM, ATP 10 μM; read-out: Residual activity (%) CHK2. The format is biochemical. How it is done: as §1, §2
A further series concerns the target MARK3 (Homo sapiens (Human), UniProt P27448). The description is as above. The note with it: 100 nM, ATP 10 μM; read-out: Residual activity (%) MARK3. The series is classed as biochemical. How it is done: as §1, §2
The next series addresses MARK1 (Homo sapiens (Human), UniProt Q9P0L2). The description is as above. The series is classed as biochemical. The note with it: 100 nM, ATP 10 μM; read-out: Residual activity (%) MARK1. As for the experimental part: as §1, §2
The target in another series is BRSK2 (Homo sapiens (Human), UniProt Q8IWQ3). The description is as above. The format is biochemical. To be noted: 100 nM, ATP 10 μM; read-out: Residual activity (%) BRSK2. How it is done:
as §1, §2

Another series concerns the target ARKS/NUAK1 (Homo sapiens (Human), UniProt O60285). The description is as above. The series is classed as biochemical. The note with it: 100 nM, ATP 10 μM; read-out: Residual activity (%) ARKS/NUAK1. How it is done:
as §1, §2

Where two headings read alike, the source gives them in different places. Where only a bound is given, the exact number is not on record here.

In general, microsomal CLint refers to the rate of metabolic loss divided by the concentration. A higher microsomal CLint goes with rapid turnover.

Chain of CYP3A4 (P08684 whole entry): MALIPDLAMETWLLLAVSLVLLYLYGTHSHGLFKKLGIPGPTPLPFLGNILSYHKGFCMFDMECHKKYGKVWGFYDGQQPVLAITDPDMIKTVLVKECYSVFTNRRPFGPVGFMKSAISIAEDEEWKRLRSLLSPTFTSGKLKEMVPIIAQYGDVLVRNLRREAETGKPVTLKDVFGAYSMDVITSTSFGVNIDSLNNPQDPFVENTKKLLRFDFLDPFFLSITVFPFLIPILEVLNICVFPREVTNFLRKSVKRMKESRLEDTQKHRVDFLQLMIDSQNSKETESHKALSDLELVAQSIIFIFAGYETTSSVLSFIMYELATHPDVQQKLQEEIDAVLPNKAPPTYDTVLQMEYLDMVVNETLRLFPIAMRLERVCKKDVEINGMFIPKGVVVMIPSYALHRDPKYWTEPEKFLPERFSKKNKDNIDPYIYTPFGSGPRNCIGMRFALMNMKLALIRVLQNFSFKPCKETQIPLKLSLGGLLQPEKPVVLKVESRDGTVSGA
Chain of ARKS/NUAK1 (O60285 whole entry): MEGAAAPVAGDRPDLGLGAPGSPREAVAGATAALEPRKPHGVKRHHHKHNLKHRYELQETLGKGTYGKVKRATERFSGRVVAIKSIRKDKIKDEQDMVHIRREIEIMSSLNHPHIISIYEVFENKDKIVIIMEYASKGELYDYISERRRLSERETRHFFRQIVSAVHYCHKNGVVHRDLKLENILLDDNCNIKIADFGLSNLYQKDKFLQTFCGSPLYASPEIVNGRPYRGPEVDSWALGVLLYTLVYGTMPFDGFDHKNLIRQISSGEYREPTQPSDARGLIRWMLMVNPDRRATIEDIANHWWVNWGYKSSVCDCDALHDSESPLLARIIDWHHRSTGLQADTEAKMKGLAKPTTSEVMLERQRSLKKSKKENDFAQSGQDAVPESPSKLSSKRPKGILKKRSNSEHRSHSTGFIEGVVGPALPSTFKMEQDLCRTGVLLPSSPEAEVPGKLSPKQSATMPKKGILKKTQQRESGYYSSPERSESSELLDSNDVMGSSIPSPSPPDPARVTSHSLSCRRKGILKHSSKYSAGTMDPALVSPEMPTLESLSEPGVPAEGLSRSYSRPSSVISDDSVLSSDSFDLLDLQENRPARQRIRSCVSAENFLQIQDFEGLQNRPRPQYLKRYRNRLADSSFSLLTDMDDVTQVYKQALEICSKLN
Chain of CHK2 (O96017 whole entry): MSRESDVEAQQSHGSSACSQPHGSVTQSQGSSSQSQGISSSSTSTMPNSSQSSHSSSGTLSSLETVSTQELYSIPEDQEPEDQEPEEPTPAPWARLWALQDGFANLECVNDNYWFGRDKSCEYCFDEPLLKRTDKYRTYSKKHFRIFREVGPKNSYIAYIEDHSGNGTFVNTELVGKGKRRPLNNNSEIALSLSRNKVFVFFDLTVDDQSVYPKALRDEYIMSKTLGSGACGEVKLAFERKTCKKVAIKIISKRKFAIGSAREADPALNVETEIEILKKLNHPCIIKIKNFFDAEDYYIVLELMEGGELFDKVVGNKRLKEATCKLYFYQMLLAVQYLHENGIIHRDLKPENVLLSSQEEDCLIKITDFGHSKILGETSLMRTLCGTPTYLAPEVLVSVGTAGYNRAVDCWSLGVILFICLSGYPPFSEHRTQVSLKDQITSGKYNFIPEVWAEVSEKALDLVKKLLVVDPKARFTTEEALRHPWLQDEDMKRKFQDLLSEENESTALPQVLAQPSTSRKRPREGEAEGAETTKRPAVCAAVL
Chain of MARK1 (Q9P0L2 whole entry): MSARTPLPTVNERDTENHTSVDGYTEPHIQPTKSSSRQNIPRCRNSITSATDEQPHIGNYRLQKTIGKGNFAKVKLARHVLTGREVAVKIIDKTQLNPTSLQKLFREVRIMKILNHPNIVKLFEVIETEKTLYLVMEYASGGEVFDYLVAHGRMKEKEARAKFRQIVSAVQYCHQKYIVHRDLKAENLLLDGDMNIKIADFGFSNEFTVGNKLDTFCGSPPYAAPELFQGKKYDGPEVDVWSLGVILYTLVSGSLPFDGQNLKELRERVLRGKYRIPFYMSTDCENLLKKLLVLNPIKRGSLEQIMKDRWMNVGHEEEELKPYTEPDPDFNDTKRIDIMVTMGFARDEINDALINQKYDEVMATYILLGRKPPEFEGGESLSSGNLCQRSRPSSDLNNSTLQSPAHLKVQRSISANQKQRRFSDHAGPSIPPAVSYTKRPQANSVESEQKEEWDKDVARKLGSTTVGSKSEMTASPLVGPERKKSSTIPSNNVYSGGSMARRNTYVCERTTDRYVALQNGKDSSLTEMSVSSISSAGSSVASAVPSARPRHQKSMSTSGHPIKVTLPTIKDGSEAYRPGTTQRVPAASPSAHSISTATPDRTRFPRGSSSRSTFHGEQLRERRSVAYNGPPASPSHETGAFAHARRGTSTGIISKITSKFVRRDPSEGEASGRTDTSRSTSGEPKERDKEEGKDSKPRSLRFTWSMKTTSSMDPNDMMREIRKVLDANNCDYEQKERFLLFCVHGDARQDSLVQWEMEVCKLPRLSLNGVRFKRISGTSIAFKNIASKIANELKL
Chain of BRSK2 (Q8IWQ3 whole entry): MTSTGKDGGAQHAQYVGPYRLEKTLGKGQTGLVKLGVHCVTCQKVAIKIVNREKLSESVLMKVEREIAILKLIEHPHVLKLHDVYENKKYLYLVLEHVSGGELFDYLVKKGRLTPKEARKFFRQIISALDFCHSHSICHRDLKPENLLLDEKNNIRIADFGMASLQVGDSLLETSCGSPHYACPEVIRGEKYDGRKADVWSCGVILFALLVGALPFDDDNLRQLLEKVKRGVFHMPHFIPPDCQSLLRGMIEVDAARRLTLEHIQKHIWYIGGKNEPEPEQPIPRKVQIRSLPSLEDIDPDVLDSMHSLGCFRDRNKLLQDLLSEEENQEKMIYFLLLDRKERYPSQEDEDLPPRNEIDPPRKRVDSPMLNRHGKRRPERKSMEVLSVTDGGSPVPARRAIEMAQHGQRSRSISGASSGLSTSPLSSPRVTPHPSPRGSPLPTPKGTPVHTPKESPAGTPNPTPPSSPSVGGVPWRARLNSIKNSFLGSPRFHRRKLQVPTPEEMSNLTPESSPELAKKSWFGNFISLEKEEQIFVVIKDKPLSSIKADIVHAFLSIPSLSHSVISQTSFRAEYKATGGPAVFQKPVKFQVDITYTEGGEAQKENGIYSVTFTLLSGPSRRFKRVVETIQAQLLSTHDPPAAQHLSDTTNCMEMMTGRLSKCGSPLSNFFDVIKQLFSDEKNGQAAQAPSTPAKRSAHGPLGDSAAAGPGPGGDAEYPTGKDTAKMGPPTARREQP
Chain of CDK8/CYCLIN C (P49336 whole entry): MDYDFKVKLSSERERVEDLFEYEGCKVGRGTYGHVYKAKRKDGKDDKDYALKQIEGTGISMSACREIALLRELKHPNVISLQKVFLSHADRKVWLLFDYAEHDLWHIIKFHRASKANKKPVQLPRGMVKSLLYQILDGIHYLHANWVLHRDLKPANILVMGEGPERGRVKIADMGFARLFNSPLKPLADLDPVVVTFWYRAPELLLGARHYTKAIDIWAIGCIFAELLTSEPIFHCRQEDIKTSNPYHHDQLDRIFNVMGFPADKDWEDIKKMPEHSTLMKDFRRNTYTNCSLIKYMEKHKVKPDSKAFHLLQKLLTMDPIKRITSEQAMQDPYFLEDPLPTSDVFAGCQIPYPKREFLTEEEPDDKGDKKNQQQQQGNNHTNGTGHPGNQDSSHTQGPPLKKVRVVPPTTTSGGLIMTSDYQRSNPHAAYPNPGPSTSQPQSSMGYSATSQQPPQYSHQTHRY
Chain of CDK8/CYCLIN C (P24863 whole entry partner): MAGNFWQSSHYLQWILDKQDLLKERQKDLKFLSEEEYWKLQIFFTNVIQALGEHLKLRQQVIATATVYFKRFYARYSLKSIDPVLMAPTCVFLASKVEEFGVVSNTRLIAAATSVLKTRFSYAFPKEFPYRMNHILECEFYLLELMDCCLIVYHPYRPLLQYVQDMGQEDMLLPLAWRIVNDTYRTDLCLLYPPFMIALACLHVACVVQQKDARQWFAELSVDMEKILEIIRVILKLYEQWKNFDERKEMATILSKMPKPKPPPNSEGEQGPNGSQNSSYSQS
Chain of BRSK1 (Q8TDC3 whole entry): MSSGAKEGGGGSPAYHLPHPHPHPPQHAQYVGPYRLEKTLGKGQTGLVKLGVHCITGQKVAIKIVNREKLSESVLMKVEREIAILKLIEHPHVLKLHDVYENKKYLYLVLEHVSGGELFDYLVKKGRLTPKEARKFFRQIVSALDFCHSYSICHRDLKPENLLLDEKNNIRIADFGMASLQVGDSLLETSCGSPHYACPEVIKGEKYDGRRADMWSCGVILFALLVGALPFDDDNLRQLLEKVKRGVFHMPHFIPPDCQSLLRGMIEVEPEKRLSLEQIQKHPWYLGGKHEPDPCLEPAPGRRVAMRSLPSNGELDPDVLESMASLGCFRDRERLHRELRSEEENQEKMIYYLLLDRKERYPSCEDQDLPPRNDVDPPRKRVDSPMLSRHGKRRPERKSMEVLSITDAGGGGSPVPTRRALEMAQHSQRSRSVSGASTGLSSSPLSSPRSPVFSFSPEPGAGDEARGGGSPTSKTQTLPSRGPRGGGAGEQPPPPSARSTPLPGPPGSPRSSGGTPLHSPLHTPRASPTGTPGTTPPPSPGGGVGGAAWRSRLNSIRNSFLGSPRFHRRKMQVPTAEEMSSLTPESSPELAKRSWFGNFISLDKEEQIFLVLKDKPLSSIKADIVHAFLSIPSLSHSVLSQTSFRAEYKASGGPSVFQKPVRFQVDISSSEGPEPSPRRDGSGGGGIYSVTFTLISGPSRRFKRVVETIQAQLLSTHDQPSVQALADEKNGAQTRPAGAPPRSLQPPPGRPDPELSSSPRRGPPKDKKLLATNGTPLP

Turning to `COc1ccnc(OCCCN)c1-c1cc(Nc2cnc(C#N)cn2)n[nH]1` [Example 1, 5-({5-[2-(3-aminopropoxy)-4-methoxypyridin-3-yl]-1H-pyrazol-3-yl}amino)pyrazine-2-carbonitrile], at CYP3A4 (by pre-incubation with NADPH, MBI action when 2-fold or greater), the “Factor of change in IC50 value” is “Not Detected”. For the same compound, the “inhibition of CYP3A4 based on MBI (in words)” value at CYP3A4 is “do not exhibit inhibition of CYP3A4 based on MBI”. The remaining activity at 0.1 µM at CHK1 turned out to be 2.87%. Besides, the “Encapsulation efficiency” value in series [1] is reported as at least 80%; in [1] (concentration upon compound introduction 3 mg/mL), 87.4%. Further, in series [1] (pH adjusted by adding 1 mol/L hydrochloric acid), the “liquid viscosity during the liposome encapsulation procedure” value is given as “increase in viscosity was not found”.

Turning to `COc1cccc(OCCCN)c1-c1cc(Nc2cnc(C#N)cn2)n[nH]1` [Prexasertib, reference compound], the “inhibition of CYP3A4 based on MBI (in words)” value on CYP3A4 is on record as “exhibits inhibition of CYP3A4 based on MBI”. For the same compound, the microsomal CLint on CYP3A4 (liver microsomes, probe midazolam or testosterone) was 0.019 µL/min/mg. In addition, the remaining activity at 0.1 µM at BRSK1 was found to be 21.7%; at LOK/STK10, 6.15%; at CDK8/CYCLIN C, 18.1%; on MARK2/PAR-1BA, 14.3%; at CAMK2D, 6.07%; at CHK2 it was 6.41%. Moreover, the remaining activity at 0.1 µM on MARK3 came to 12.6%; at MARK1, 14.1%; at BRSK2, 14.4%; at ARKS/NUAK1, 17.9%. In addition, the “Compound concentration in liposome solution” value in series [1] (concentration upon compound introduction 2 mg/mL) was 2160 µg/mL.
